Laboratory results as given in patent US8586550B2, “Thiazole derivatives as SGLT2 inhibitors and pharmaceutical composition comprising same” (Green Cross Corporation, priority 2010, dated 2013).

Target: T1, Human SGLT2 (hSGLT2) (Homo sapiens, UniProt P31639)
T1 construct: expressed in transfected cells
T1 sequence (P31639 1-672): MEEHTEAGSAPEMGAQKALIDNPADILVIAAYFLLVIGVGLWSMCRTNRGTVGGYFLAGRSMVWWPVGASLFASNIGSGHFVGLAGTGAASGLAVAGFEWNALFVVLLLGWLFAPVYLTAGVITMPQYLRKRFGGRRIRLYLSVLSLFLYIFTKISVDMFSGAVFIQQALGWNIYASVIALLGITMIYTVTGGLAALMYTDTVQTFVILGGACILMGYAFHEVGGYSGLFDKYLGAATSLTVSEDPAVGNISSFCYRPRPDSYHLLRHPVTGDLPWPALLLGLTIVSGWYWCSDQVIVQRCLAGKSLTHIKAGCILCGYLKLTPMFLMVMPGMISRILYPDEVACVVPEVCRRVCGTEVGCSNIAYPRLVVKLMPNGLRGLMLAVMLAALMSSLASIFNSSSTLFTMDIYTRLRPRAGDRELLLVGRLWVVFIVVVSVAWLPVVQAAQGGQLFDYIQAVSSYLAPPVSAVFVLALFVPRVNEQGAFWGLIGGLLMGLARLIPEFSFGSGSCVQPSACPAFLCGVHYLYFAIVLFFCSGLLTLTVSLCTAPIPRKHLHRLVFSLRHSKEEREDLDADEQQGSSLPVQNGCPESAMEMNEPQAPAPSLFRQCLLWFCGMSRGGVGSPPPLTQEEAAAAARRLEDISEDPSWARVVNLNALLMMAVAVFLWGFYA
Experiment: Sodium-dependent glucose transport (14C-AMG uptake) assay in CHO cells stably expressing hSGLT2
Format: cell-based
Settings: CHO cells expressing hSGLT2, 14C-AMG uptake, 37° C. for 2 h; single determinations; read-out: hSGLT2 Inhibitory Activity IC50
Outline: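 Uptake of 14C-α-methyl-D-glucopyranoside (8 μM labeled, 1 mM unlabeled, NaCl buffer pH 7.4) measured over 2 h at 37 °C with inhibitor in hSGLT2-transfected CHO cells after 10 min choline-buffer pretreatment. Radioactivity by liquid scintillation; IC50 from nonlinear regression.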

Row | SMILES | IC50
1 | Cc1cnc(Cc2cc([C@@H]3O[C@H](CO)[C@@H](O)[C@H](O)[C@H]3O)c(Cl)cc2Cl)s1 [Example 63, (2S,3R,4R,5S,6R)-2-(2,4-Dichloro-5-((5-methylthiazol-2-yl)methyl)phenyl)-6-(hydroxymethyl)tetrahydro-2H-pyran-3,4,5-triol] | 49.1 nM
2 | CCc1cnc(Cc2cc([C@@H]3O[C@H](CO)[C@@H](O)[C@H](O)[C@H]3O)c(Cl)cc2Cl)s1 [Example 64, (2S,3R,4R,5S,6R)-2-(2,4-Dichloro-5-((5-ethylthiazol-2-yl)methyl)phenyl)-6-(hydroxymethyl)tetrahydro-2H-pyran-3,4,5-triol] | 26.3 nM
3 | CCCc1cnc(Cc2cc([C@@H]3O[C@H](CO)[C@@H](O)[C@H](O)[C@H]3O)c(Cl)cc2Cl)s1 [Example 65, (2S,3R,4R,5S,6R)-2-(2,4-Dichloro-5-((5-propylthiazol-2-yl)methyl)phenyl)-6-(hydroxymethyl)tetrahydro-2H-pyran-3,4,5-triol] | 43.7 nM
4 | CCCCc1cnc(Cc2cc([C@@H]3O[C@H](CO)[C@@H](O)[C@H](O)[C@H]3O)c(Cl)cc2Cl)s1 [Example 66, (2S,3R,4R,5S,6R)-2-(5-((5-Butylthiazol-2-yl)methyl)-2,4-dichlorophenyl)-6-(hydroxymethyl)tetrahydro-2H-pyran-3,4,5-triol] | 60.5 nM
5 | CCCCCCc1cnc(Cc2cc([C@@H]3O[C@H](CO)[C@@H](O)[C@H](O)[C@H]3O)c(Cl)cc2Cl)s1 [Example 67, (2S,3R,4R,5S,6R)-2-(2,4-Dichloro-5-((5-hexylthiazol-2-yl)methyl)phenyl)-6-(hydroxymethyl)tetrahydro-2H-pyran-3,4,5-triol] | 38.7 nM
6 | OC[C@H]1O[C@@H](c2cc(Cc3ncc(C4CCCC4)s3)c(Cl)cc2Cl)[C@H](O)[C@@H](O)[C@@H]1O [Example 68, (2S,3R,4R,5S,6R)-2-(2,4-Dichloro-5-((5-cyclopentylthiazol-2-yl)methyl)phenyl)-6-(hydroxymethyl)tetrahydro-2H-pyran-3,4,5-triol] | 33 nM
7 | COc1cc(Cl)c(Cc2ncc(-c3ccoc3)s2)cc1[C@@H]1O[C@H](CO)[C@@H](O)[C@H](O)[C@H]1O [Example 70, (2S,3R,4R,5S,6R)-2-(4-Chloro-5-((5-(furan-3-yl)thiazol-2-yl)methyl)-2-methoxyphenyl)-6-(hydroxymethyl)tetrahydro-2H-pyran-3,4,5-triol] | 7.37 nM
8 | COc1cc(Cl)c(Cc2ncc(-c3ccc(F)cc3)s2)cc1[C@@H]1O[C@H](CO)[C@@H](O)[C@H](O)[C@H]1O [Example 74, (2S,3R,4R,5S,6R)-2-(4-Chloro-5-((5-(4-fluorophenyl)thiazol-2-yl)methyl)-2-methoxyphenyl)-6-(hydroxymethyl)tetrahydro-2H-pyran-3,4,5-triol] | 6.08 nM
9 | CCCCCCc1cnc(Cc2cc([C@@H]3O[C@H](CO)[C@@H](O)[C@H](O)[C@H]3O)c(OC)cc2Cl)s1 [Example 75, (2S,3R,4R,5S,6R)-2-(4-Chloro-5-((5-hexylthiazol-2-yl)methyl)-2-methoxyphenyl)-6-(hydroxymethyl)tetrahydro-2H-pyran-3,4,5-triol] | 4.48 nM
10 | COc1cc(Cl)c(Cc2ncc(C3CCCC3)s2)cc1[C@@H]1O[C@H](CO)[C@@H](O)[C@H](O)[C@H]1O [Example 76, (2S,3R,4R,5S,6R)-2-(4-Chloro-5-((5-cyclopentylthiazol-2-yl)methyl)-2-methoxyphenyl)-6-(hydroxymethyl)tetrahydro-2H-pyran-3,4,5-triol] | 9.35 nM
11 | CCOc1cc(Cl)c(Cc2ncc(-c3ccoc3)s2)cc1[C@@H]1O[C@H](CO)[C@@H](O)[C@H](O)[C@H]1O [Example 78, (2S,3R,4R,5S,6R)-2-(4-Chloro-2-ethoxy-5-((5-(furan-3-yl)thiazol-2-yl)methyl)phenyl)-6-(hydroxymethyl)-tetrahydro-2H-pyran-3,4,5-triol] | 4.35 nM
12 | CCOc1cc(Cl)c(Cc2ncc(-c3cccs3)s2)cc1[C@@H]1O[C@H](CO)[C@@H](O)[C@H](O)[C@H]1O [Example 79, (2S,3R,4R,5S,6R)-2-(4-Chloro-2-ethoxy-5-((5-(thiophen-2-yl)thiazol-2-yl)methyl)phenyl)-6-(hydroxymethyl)tetralrydro-2H-pyran-3,4,5-triol] | 4.29 nM
13 | CCOc1cc(Cl)c(Cc2ncc(-c3ccc(F)cc3)s2)cc1[C@@H]1O[C@H](CO)[C@@H](O)[C@H](O)[C@H]1O [Example 82, (2S,3R,4R,5S,6R)-2-(4-Chloro-2-ethoxy-5-((5-(4-fluorophenyl)thiazol-2-yl)methyl)phenyl)-6-(hydroxymethyl)tetrahydro-2H-pyran-3,4,5-triol] | 7.55 nM
14 | C=CCOc1cc(Cl)c(Cc2ncc(-c3ccc(F)cc3)s2)cc1[C@@H]1O[C@H](CO)[C@@H](O)[C@H](O)[C@H]1O [Example 88, (2S,3R,4R,5S,6R)-2-(2-(Allyloxy)-4-chloro-5-((5-(4-fluorophenyl)thiazol-2-yl)methyl)phenyl)-6-(hydroxymethyl)tetrahydro-2H-pyran-3,4,5-triol] | 4.22 nM

Molecules with a lower IC50, results first:

Row | IC50 | SMILES
15 | 3.98 nM | CCOc1cc(Cl)c(Cc2ncc(-c3ccco3)s2)cc1[C@@H]1O[C@H](CO)[C@@H](O)[C@H](O)[C@H]1O [Example 77, (2S,3R,4R,5S,6R)-2-(4-Chloro-2-ethoxy-5-((5-(furan-2-yl)thiazol-2-yl)methyl)phenyl)-6-(hydroxymethyl)tetrahydro-2H-pyran-3,4,5-triol]
16 | 3.38 nM | C=CCOc1cc(Cl)c(Cc2ncc(-c3ccccc3)s2)cc1[C@@H]1O[C@H](CO)[C@@H](O)[C@H](O)[C@H]1O [Example 87, (2S,3R,4R,5S,6R)-2-(2-(Allyloxy)-4-chloro-5-((5-phenylthiazol-2-yl)methyl)phenyl)-6-(hydroxymethyl)tetrahydro-2H-pyran-3,4,5-triol]
17 | 2.87 nM | CCOc1cc(Cl)c(Cc2ncc(-c3ccccc3)s2)cc1[C@@H]1O[C@H](CO)[C@@H](O)[C@H](O)[C@H]1O [Example 81, (2S,3R,4R,5S,6R)-2-(4-Chloro-2-ethoxy-5-((5-phenylthiazol-2-yl)methyl)phenyl)-6-(hydroxymethyl)tetrahydro-2H-pyran-3,4,5-triol]
18 | 2.31 nM | OC[C@H]1O[C@@H](c2cc(Cc3ncc(-c4ccsc4)s3)c(Cl)cc2Cl)[C@H](O)[C@@H](O)[C@@H]1O [Example 62, (2S,3R,4R,5S,6R)-2-(2,4-Dichloro-5-((5-(thiophen-3-yl)thiazol-2-yl)methyl)phenyl)-6-(hydroxymethyl)tetrahydro-2H-pyran-3,4,5-triol]
19 | 2.24 nM | COc1cc(Cl)c(Cc2ncc(-c3ccco3)s2)cc1[C@@H]1O[C@H](CO)[C@@H](O)[C@H](O)[C@H]1O [Example 69, (2S,3R,4R,5S,6R)-2-(4-Chloro-5-((5-(furan-2-yl)thiazol-2-yl)methyl)-2-methoxyphenyl)-6-(hydroxymethyl)tetrahydro-2H-pyran-3,4,5-triol]
20 | 2.01 nM | COc1cc(Cl)c(Cc2ncc(-c3ccccc3)s2)cc1[C@@H]1O[C@H](CO)[C@@H](O)[C@H](O)[C@H]1O [Example 73, (2S,3R,4R,5S,6R)-2-(4-Chloro-2-methoxy-5-((5-phenylthiazol-2-yl)methyl)phenyl)-6-(hydroxymethyl)tetrahydro-2H-pyran-3,4,5-triol]
21 | 1.69 nM | C=CCOc1cc(Cl)c(Cc2ncc(-c3cccs3)s2)cc1[C@@H]1O[C@H](CO)[C@@H](O)[C@H](O)[C@H]1O [Example 85, (2S,3R,4R,5S,6R)-2-(2-(Allyloxy)-4-chloro-5-((5-(thiophen-2-yl)thiazol-2-yl)methyl)phenyl)-6-(hydroxymethyl)tetrahydro-2H-pyran-3,4,5-triol]
22 | 1.54 nM | C=CCOc1cc(Cl)c(Cc2ncc(-c3ccoc3)s2)cc1[C@@H]1O[C@H](CO)[C@@H](O)[C@H](O)[C@H]1O [Example 84, (2S,3R,4R,5S,6R)-2-(2-(Allyloxy)-4-chloro-5-((5-(furan-3-yl)thiazol-2-yl)methyl)phenyl)-6-(hydroxymethyl)tetrahydro-2H-pyran-3,4,5-triol]
23 | 1.29 nM | COc1cc(Cl)c(Cc2ncc(-c3ccsc3)s2)cc1[C@@H]1O[C@H](CO)[C@@H](O)[C@H](O)[C@H]1O [Example 72, (2S,3R,4R,5S,6R)-2-(4-Chloro-2-methoxy-5-((5-(thiophen-3-yl)thiazol-2-yl)methyl)phenyl)-6-(hydroxymethyl)tetrahydro-2,1-pyran-3,4,5-triol]
24 | 1.24 nM | C=CCOc1cc(Cl)c(Cc2ncc(-c3ccco3)s2)cc1[C@@H]1O[C@H](CO)[C@@H](O)[C@H](O)[C@H]1O [Example 83, (2S,3R,4R,5S,6R)-2-(2-(Allyloxy)-4-chloro-5-((5-(furan-2-yl)thiazol-2-yl)methyl)phenyl)-6-(hydroxymethyl)tetrahydro-2H-pyran-3,4,5-triol]
25 | 0.934 nM | C=CCOc1cc(Cl)c(Cc2ncc(-c3ccsc3)s2)cc1[C@@H]1O[C@H](CO)[C@@H](O)[C@H](O)[C@H]1O [Example 86, (2S,3R,4R,5S,6R)-2-(2-(Allyloxy)-4-chloro-5-((5-(thiophen-3-yl)thiazol-2-yl)methyl)phenyl)-6-(hydroxymethyl)tetrahydro-2H-pyran-3,4,5-triol]
